# Experimental data from ChEMBL document CHEMBL1130041, “Halogenated 4-(phenoxymethyl)piperidines as potential radiolabeled probes for sigma-1 receptors: in vivo evaluation of [123I]-1-(iodopropen-2-yl)-4-[(4-cyanophenoxy)methyl]pip eri dine” (J Med Chem, 1997).
# Tests used:
# Rattus norvegicus [1] = organism: Rattus norvegicus; test: Biodistribution of [123I]-label in rat liver was reported at 4 hr post injection. Value shown is %ID/g of tissue; type: ADME, organism-based; settings: in vivo
# Rattus norvegicus [2] = organism: Rattus norvegicus; test: Biodistribution of [123I]-label in rat blood was reported at 2 hr post injection. Value shown is %ID/g of tissue; type: ADME, organism-based; settings: in vivo
# Rattus norvegicus [3] = organism: Rattus norvegicus; test: Biodistribution of [123I]-label in rat blood was reported at 4 hr post injection. Value shown is %ID/g of tissue; type: ADME, organism-based; settings: in vivo
# Rattus norvegicus [4] = organism: Rattus norvegicus; test: Biodistribution of [123I]-label in rat heart was reported at 2 hr post injection. Value shown is %ID/g of tissue; type: ADME, organism-based; settings: in vivo
# Rattus norvegicus [5] = organism: Rattus norvegicus; test: Biodistribution of [123I]-label in rat lung was reported at 1 hr post injection. Value shown is %ID/g of tissue; type: ADME, organism-based; settings: in vivo
# Rattus norvegicus [6] = organism: Rattus norvegicus; test: Biodistribution of [123I]-label in rat lung was reported at 2 hr post injection. Value shown is %ID/g of tissue; type: ADME, organism-based; settings: in vivo
# Rattus norvegicus [7] = organism: Rattus norvegicus; test: Biodistribution of [123I]-label in rat stomach was reported at 0.33 hr post injection. Value shown is %ID/g of tissue; type: ADME, organism-based; settings: in vivo
# Rattus norvegicus [8] = organism: Rattus norvegicus; test: Biodistribution of [123I]-label in rat stomach was reported at 1 h post injection. Value shown is %ID/g of tissue; type: ADME, organism-based; settings: in vivo
# Rattus norvegicus [9] = organism: Rattus norvegicus; test: Biodistribution of [123I]-label in rat stomach was reported at 24 hr post injection. Value shown is %ID/g of tissue; type: ADME, organism-based; settings: in vivo
# Rattus norvegicus [10] = organism: Rattus norvegicus; test: Biodistribution of [123I]-label in rat stomach was reported at 4 hr post injection. Value shown is %ID/g of tissue; type: ADME, organism-based; settings: in vivo
# Rattus norvegicus [11] = organism: Rattus norvegicus; test: Distribution of [123I]-label in rat brain (cerebellum) was reported at 20 min post injection. Value shown is %ID/g of tissue; type: ADME, organism-based; settings: in vivo
# Rattus norvegicus [12] = organism: Rattus norvegicus; test: Distribution of [123I]-label in rat brain (cerebellum) was reported at 60 min post injection. Value shown is %ID/g of tissue; type: ADME, organism-based; settings: in vivo, 1 h
# Rattus norvegicus [13] = organism: Rattus norvegicus; test: Distribution of [123I]-label in rat brain (diencephalon) was reported at 20 min post injection. Value shown is %ID/g of tissue; type: ADME, organism-based; settings: in vivo
# Rattus norvegicus [14] = organism: Rattus norvegicus; test: Distribution of [123I]-label in rat brain (frontal cortex) was reported at 60 min post injection. Value shown is %ID/g of tissue; type: ADME, organism-based; settings: in vivo, 1 h
# Rattus norvegicus [15] = organism: Rattus norvegicus; test: Distribution of [123I]-label in rat brain (medulla pons) was reported at 20 min post injection. Value shown is %ID/g of tissue; type: ADME, organism-based; settings: in vivo
# Rattus norvegicus [16] = organism: Rattus norvegicus; test: Distribution of [123I]-label in rat brain (midbrain) was reported at 20 min post injection. Value shown is %ID/g of tissue; type: ADME, organism-based; settings: in vivo
# Rattus norvegicus [17] = organism: Rattus norvegicus; test: Distribution of [123I]-label in rat brain (posterior cortex) was reported at 60 min post injection. Value shown is %ID/g of tissue; type: ADME, organism-based; settings: in vivo, 1 h
# Rattus norvegicus [18] = organism: Rattus norvegicus; test: Distribution of [123I]-label in rat brain (striatum) was reported at 20 min post injection. Value shown is %ID/g of tissue; type: ADME, organism-based; settings: in vivo
# Rattus norvegicus [19] = organism: Rattus norvegicus; test: Distribution of [123I]-label in rat brain (striatum) was reported at 60 min post injection. Value shown is %ID/g of tissue; type: ADME, organism-based; settings: in vivo, 1 h
# Rattus norvegicus [20] = organism: Rattus norvegicus; test: Biodistribution of [123I]-label in rat blood was reported at 1 hr post injection. Value shown is %ID/g of tissue; type: ADME, organism-based; settings: in vivo
# Rattus norvegicus [21] = organism: Rattus norvegicus; test: Biodistribution of [123I]-label in rat heart was reported at 24 hr post injection. Value shown is %ID/g of tissue; type: ADME, organism-based; settings: in vivo
# Rattus norvegicus [22] = organism: Rattus norvegicus; test: Biodistribution of [123I]-label in rat kidneys was reported at 2 hr post injection. Value shown is %ID/g of tissue; type: ADME, organism-based, Kidney; settings: in vivo
# Rattus norvegicus [23] = organism: Rattus norvegicus; test: Biodistribution of [123I]-label in rat kidneys was reported at 4 hr post injection. Value shown is %ID/g of tissue; type: ADME, organism-based, Kidney; settings: in vivo
# Rattus norvegicus [24] = organism: Rattus norvegicus; test: Biodistribution of [123I]-label in rat liver was reported at 0.33 hr post injection. Value shown is %ID/g of tissue; type: ADME, organism-based; settings: in vivo
# Rattus norvegicus [25] = organism: Rattus norvegicus; test: Biodistribution of [123I]-label in rat muscle was reported at 1 hr post injection. Value shown is %ID/g of tissue; type: ADME, organism-based; settings: in vivo
# Rattus norvegicus [26] = organism: Rattus norvegicus; test: Biodistribution of [123I]-label in rat muscle was reported at 2 hr post injection. Value shown is %ID/g of tissue; type: ADME, organism-based; settings: in vivo
# Rattus norvegicus [27] = organism: Rattus norvegicus; test: Biodistribution of [123I]-label in rat brain was reported at 0.33 hr post injection. Value shown is %ID/organ; type: ADME, organism-based; settings: in vivo
# Rattus norvegicus [28] = organism: Rattus norvegicus; test: Biodistribution of [123I]-label in rat brain was reported at 24 hr post injection. Value shown is %ID/organ; type: ADME, organism-based; settings: in vivo
# Rattus norvegicus [29] = organism: Rattus norvegicus; test: Biodistribution of [123I]-label in rat brain was reported at 4 hr post injection. Value shown is %ID/organ; type: ADME, organism-based; settings: in vivo
# Rattus norvegicus [30] = organism: Rattus norvegicus; test: Biodistribution of [123I]-label in rat thyroid was reported at 1 hr post injection. Value shown is %ID/organ; type: ADME, organism-based, Thyroid gland; settings: in vivo
# Rattus norvegicus [31] = organism: Rattus norvegicus; test: Biodistribution of [123I]-label in rat thyroid was reported at 2 hr post injection. Value shown is %ID/organ; type: ADME, organism-based, Thyroid gland; settings: in vivo
# Rattus norvegicus [32] = organism: Rattus norvegicus; test: Biodistribution of [123I]-label in rat thyroid was reported at 24 hr post injection. Value shown is %ID/organ; type: ADME, organism-based, Thyroid gland; settings: in vivo
# Rattus norvegicus [33] = organism: Rattus norvegicus; test: Biodistribution of [123I]-label in rat thyroid was reported at 4 hr post injection. Value shown is %ID/organ; type: ADME, organism-based, Thyroid gland; settings: in vivo
# [34] = biological target: Sigma non-opioid intracellular receptor 1 (Homo sapiens, UniProt Q99720); test: 50% inhibitory dose against sigma receptor; type: functional
# Sigma non-opioid intracellular receptor 1, sequence (Q99720 whole entry): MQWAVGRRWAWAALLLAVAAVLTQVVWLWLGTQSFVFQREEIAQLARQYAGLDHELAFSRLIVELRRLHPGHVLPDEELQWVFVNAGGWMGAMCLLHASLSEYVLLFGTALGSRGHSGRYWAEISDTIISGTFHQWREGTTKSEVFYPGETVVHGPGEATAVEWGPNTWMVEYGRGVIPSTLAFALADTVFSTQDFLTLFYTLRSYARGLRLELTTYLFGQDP
# Sigma 2 receptor = test: Receptor binding affinity against Sigma-2 receptor from guinea pig membranes; set-up: species or system Cavia porcellus
compound,measurement,setting,value
N#Cc1ccc(OCC2CCN(C/C=C/I)CC2)cc1,ID/g,Rattus norvegicus [1],0.5%
same,ID/g,Rattus norvegicus [2],0.03%
same,ID/g,Rattus norvegicus [3],0.02%
same,ID/g,Rattus norvegicus [4],0.81%
same,ID/g,Rattus norvegicus [5],6.35%
same,ID/g,Rattus norvegicus [6],3.75%
same,ID/g,Rattus norvegicus [7],0.46%
same,ID/g,Rattus norvegicus [8],0.65%
same,ID/g,Rattus norvegicus [9],0.18%
same,ID/g,Rattus norvegicus [10],0.27%
same,ID/g,Rattus norvegicus [11],1.01%
same,ID/g,Rattus norvegicus [12],1.09%
same,ID/g,Rattus norvegicus [13],1.03%
same,ID/g,Rattus norvegicus [14],1.29%
same,ID/g,Rattus norvegicus [15],0.95%
same,ID/g,Rattus norvegicus [16],1.06%
same,ID/g,Rattus norvegicus [17],1.51%
same,ID/g,Rattus norvegicus [18],1.17%
same,ID/g,Rattus norvegicus [19],1.13%
same,ID/g,Rattus norvegicus [20],0.08%
same,ID/g,Rattus norvegicus [21],0.18%
same,ID/g,Rattus norvegicus [22],1.3%
same,ID/g,Rattus norvegicus [23],1.31%
same,ID/g,Rattus norvegicus [24],0.33%
same,ID/g,Rattus norvegicus [25],0.29%
same,ID/g,Rattus norvegicus [26],0.22%
same,ID,Rattus norvegicus [27],1.97%
same,ID,Rattus norvegicus [28],1.61%
same,ID,Rattus norvegicus [29],2.03%
same,ID,Rattus norvegicus [30],0.3%
same,ID,Rattus norvegicus [31],0.27%
same,ID,Rattus norvegicus [32],1.19%
same,ID,Rattus norvegicus [33],0.34%
same,ID50,[34],0.01 mg/kg
same,Ki,Sigma 2 receptor,38.8 nM
